O=C1CCCC(=O)O1
solubility (mole fraction) (in acetic acid, 279.65 K): 0.0783 | solubility (mole fraction) (in acetic acid, 282.25 K): 0.0967 | solubility (mole fraction) (in acetic acid, 284.55 K): 0.119 | solubility (mole fraction) (in acetic acid, 287.05 K): 0.152 | solubility (mole fraction) (in acetic acid, 289.55 K): 0.183 | solubility (mole fraction) (in acetic acid, 291.95 K): 0.223 | solubility (mole fraction) (in acetic acid, 294.25 K): 0.27 | solubility (mole fraction) (in acetic acid, 296.65 K): 0.323 | solubility (mole fraction) (in acetic acid, 299.15 K): 0.376 | solubility (mole fraction) (in acetic acid, 302.15 K): 0.436 | solubility (mole fraction) (in acetic acid, 304.05 K): 0.502 | solubility (mole fraction) (in acetic acid, 306.25 K): 0.557 | solubility (mole fraction) (in acetyl acetate, 278.45 K): 0.153 | solubility (mole fraction) (in acetyl acetate, 282.45 K): 0.205 | solubility (mole fraction) (in acetyl acetate, 283.85 K): 0.231 | solubility (mole fraction) (in acetyl acetate, 285.45 K): 0.259 | solubility (mole fraction) (in acetyl acetate, 287.65 K): 0.299 | solubility (mole fraction) (in acetyl acetate, 290.55 K): 0.342 | solubility (mole fraction) (in acetyl acetate, 293.05 K): 0.388 | solubility (mole fraction) (in acetyl acetate, 296.95 K): 0.437 | solubility (mole fraction) (in acetyl acetate, 300.25 K): 0.502 | solubility (mole fraction) (in acetyl acetate, 304.05 K): 0.562 | solubility (mole fraction) (in tetrachloromethane, 282.25 K): 0.00064 | solubility (mole fraction) (in tetrachloromethane, 285.45 K): 0.00073 | solubility (mole fraction) (in tetrachloromethane, 288.05 K): 0.00097 | solubility (mole fraction) (in tetrachloromethane, 291.15 K): 0.00141 | solubility (mole fraction) (in tetrachloromethane, 293.95 K): 0.00182 | solubility (mole fraction) (in tetrachloromethane, 295.95 K): 0.00225 | solubility (mole fraction) (in tetrachloromethane, 300.25 K): 0.00268 | solubility (mole fraction) (in tetrachloromethane, 303.25 K): 0.00321 | solubility (mole fraction) (in tetrachloromethane, 306.25 K): 0.0039 | solubility (mole fraction) (in tetrachloromethane, 309.85 K): 0.00487 | solubility (mole fraction) (in tetrachloromethane, 312.95 K): 0.00544 | solubility (mole fraction) (in tetrachloromethane, 315.55 K): 0.00586 | solubility (mole fraction) (in tetrachloromethane, 318.25 K): 0.00619 | solubility (mole fraction) (in tetrachloromethane, 320.45 K): 0.00639

Source: BigSolDB 2.1
